In PubChem BioAssay AID248 (DTP/NCI, 2004):
“And” between values parts separate entries of the source, which are not always exact repeats. Identical values can stand only once. Inconclusive results and toxic doses are left out. No stated cut-off is given here; in the data, active means T/C of 150% or more; inactive means T/C below 125%.

Tested on: L1210 leukemia ip in BDF1 mice, survival T/C
Test: NCI In Vivo Anticancer Drug Screen. Data for tumor model L1210 Leukemia (intraperitoneal) in B6D2F1 (BDF1) mice
Conditions: endpoint: mean survival time, higher = longer survival
Summary of the method: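 Mice bearing the transplanted tumor received compound or vehicle. Survival of the treated group was divided by that of the vehicle-treated control group to give the ratio.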

[1] = dose: 25.0 mg/kg/injection, schedule: Q04DX003 (ip), vehicle: saline
[2] = dose: 50.0 mg/kg/injection, schedule: Q04DX003 (ip), vehicle: saline
[3] = dose: 100.0 mg/kg/injection, schedule: Q04DX003 (ip), vehicle: saline with Tween-80
[4] = dose: 100.0 mg/kg/injection, schedule: Q04DX003 (ip), vehicle: saline
[5] = dose: 200.0 mg/kg/injection, schedule: Q04DX003 (ip), vehicle: saline
[6] = dose: 400.0 mg/kg/injection, schedule: Q04DX003 (ip), vehicle: saline
[7] = dose: 100.0 mg/kg/injection, schedule: Q01DX001 (ip), vehicle: Klucel (hydroxypropylcellulose) (HPC)
[8] = dose: 200.0 mg/kg/injection, schedule: Q01DX001 (ip), vehicle: Klucel (hydroxypropylcellulose) (HPC)
[9] = dose: 400.0 mg/kg/injection, schedule: Q01DX001 (ip), vehicle: Klucel (hydroxypropylcellulose) (HPC)
[10] = dose: 100.0 mg/kg/injection, schedule: Q01DX001 (ip), vehicle: carboxymethylcellulose (CMC)
[11] = dose: 100.0 mg/kg/injection, schedule: Q01DX009 (ip), vehicle: saline with Tween-80
[12] = dose: 200.0 mg/kg/injection, schedule: Q01DX001 (ip), vehicle: carboxymethylcellulose (CMC)
[13] = dose: 400.0 mg/kg/injection, schedule: Q01DX001 (ip), vehicle: carboxymethylcellulose (CMC)
[14] = dose: 25.0 mg/kg/injection, schedule: Q04DX003 (ip), vehicle: Klucel (hydroxypropylcellulose) (HPC)
[15] = dose: 50.0 mg/kg/injection, schedule: Q04DX003 (ip), vehicle: Klucel (hydroxypropylcellulose) (HPC)
[16] = dose: 100.0 mg/kg/injection, schedule: Q01DX009 (ip), vehicle: Klucel (hydroxypropylcellulose) (HPC)
[17] = dose: 100.0 mg/kg/injection, schedule: Q04DX003 (ip), vehicle: Klucel (hydroxypropylcellulose) (HPC)

Measured: T/C

CC12CC3(O)OC(O1)C1(COC(=O)c4ccccc4)C3CC21OC1OC(CO)C(O)C(O)C1O (configuration not stated)
inactive: dose: 100.0 mg/kg/injection, schedule: Q04DX002 (ip), vehicle: saline 107 % of control | dose: 200.0 mg/kg/injection, schedule: Q04DX002 (ip), vehicle: saline 107 % of control | dose: 400.0 mg/kg/injection, schedule: Q04DX002 (ip), vehicle: saline 114 % of control

NC(N)=NCCCOc1ccc([N+](=O)[O-])cc1
inactive: [1] 96 % of control | [2] 100 % of control | [3] 101 % of control | [4] 94 % of control

Cc1ccc(NC(=O)Oc2ccc(Br)cc2)c([N+](=O)[O-])c1
inactive: dose: 100.0 mg/kg/injection, schedule: Q04DX002 (ip), vehicle: Klucel (hydroxypropylcellulose) (HPC) 99 % of control | dose: 200.0 mg/kg/injection, schedule: Q04DX002 (ip), vehicle: Klucel (hydroxypropylcellulose) (HPC) 115 % of control | dose: 400.0 mg/kg/injection, schedule: Q04DX002 (ip), vehicle: Klucel (hydroxypropylcellulose) (HPC) 92 % of control

OCCN1CCN(CC/C=C2\c3ccccc3COc3ccc(Cl)cc32)CC1
inactive: dose: 0.78 mg/kg/injection, schedule: Q03HX024 (ip), vehicle: saline 97 % of control | dose: 1.56 mg/kg/injection, schedule: Q03HX024 (ip), vehicle: saline 94 % of control | dose: 2.0 mg/kg/injection, schedule: Q01DX009 (ip), vehicle: saline 88 % of control | dose: 3.12 mg/kg/injection, schedule: Q01DX009 (ip), vehicle: saline 114 % of control and 123 % of control | dose: 3.12 mg/kg/injection, schedule: Q03HX024 (ip), vehicle: saline 96 % of control | dose: 3.12 mg/kg/injection, schedule: Q04DX003 (ip), vehicle: saline 97 % of control | dose: 4.0 mg/kg/injection, schedule: Q01DX009 (ip), vehicle: saline 98 % of control | dose: 6.25 mg/kg/injection, schedule: Q01DX009 (ip), vehicle: saline 107 % of control and 122 % of control | dose: 6.25 mg/kg/injection, schedule: Q04DX003 (ip), vehicle: saline 105 % of control and 120 % of control | dose: 8.0 mg/kg/injection, schedule: Q01DX009 (ip), vehicle: saline 96 % of control | dose: 12.5 mg/kg/injection, schedule: Q01DX001 (ip), vehicle: saline 106 % of control | dose: 12.5 mg/kg/injection, schedule: Q01DX009 (ip), vehicle: saline 114 % of control | dose: 12.5 mg/kg/injection, schedule: Q04DX003 (ip), vehicle: saline 103 % of control and 117 % of control | dose: 16.0 mg/kg/injection, schedule: Q01DX009 (ip), vehicle: saline 100 % of control | dose: 18.75 mg/kg/injection, schedule: Q01DX001 (ip), vehicle: saline 100 % of control | dose: 25.0 mg/kg/injection, schedule: Q01DX001 (ip), vehicle: saline 120 % of control | [1] 95 % of control and 119 % of control | dose: 37.5 mg/kg/injection, schedule: Q01DX001 (ip), vehicle: saline 120 % of control | dose: 50.0 mg/kg/injection, schedule: Q01DX001 (ip), vehicle: saline 101 % of control | [2] 101 % of control | dose: 75.0 mg/kg/injection, schedule: Q01DX001 (ip), vehicle: saline 88 % of control | dose: 100.0 mg/kg/injection, schedule: Q01DX001 (ip), vehicle: saline 118 % of control

OC1c2ccccc2-c2ccccc21
inactive: [4] 91 % of control | [5] 93 % of control | [6] 93 % of control

CCCCCCCCCCCCCC(=O)OC1CCC2(C)C(=CCC3C2CCC2(C)C(C(C)CCCC(C)C)CCC32)C1 (configuration not stated)
inactive: dose: 50.0 mg/kg/injection, schedule: Q01DX001 (ip), vehicle: Klucel (hydroxypropylcellulose) (HPC) 96 % of control | [7] 89 % of control | [8] 87 % of control and 89 % of control | [9] 87 % of control

CCCCN(C)CCNc1cc(C)nc(/N=C(\N)Nc2ccc(Cl)c(Cl)c2)n1
inactive: dose: 18.75 mg/kg/injection, schedule: Q01DX009 (ip), vehicle: Klucel (hydroxypropylcellulose) (HPC) 103 % of control | dose: 37.5 mg/kg/injection, schedule: Q01DX009 (ip), vehicle: Klucel (hydroxypropylcellulose) (HPC) 97 % of control

C=CC(C)(C)C(=C)C
inactive: [4] 110 % of control | [5] 108 % of control | [6] 101 % of control

C=CCNc1nnnn1CC=C
inactive: [3] 102 % of control | dose: 200.0 mg/kg/injection, schedule: Q04DX003 (ip), vehicle: saline with Tween-80 102 % of control | dose: 400.0 mg/kg/injection, schedule: Q04DX003 (ip), vehicle: saline with Tween-80 96 % of control

CCCCCCCCCCCCOB(OCCCCCCCCCCCC)OCCCCCCCCCCCC
inactive: dose: 50.0 mg/kg/injection, schedule: Q01DX001 (ip), vehicle: carboxymethylcellulose (CMC) 96 % of control | [10] 102 % of control | [11] 98 % of control | [12] 94 % of control | [13] 94 % of control

COC1OC2COC(C)(C)OC2C1OS(=O)(=O)c1ccc(C)cc1 (configuration not stated)
inactive: [10] 104 % of control | [12] 96 % of control | [13] 107 % of control

CCN(CCP(c1ccccc1)c1ccccc1)CCP(c1ccccc1)c1ccccc1
inactive: dose: 6.25 mg/kg/injection, schedule: Q01DX009 (ip), vehicle: Klucel (hydroxypropylcellulose) (HPC) 120 % of control | dose: 19.0 mg/kg/injection, schedule: Q01DX001 (ip), vehicle: other 120 % of control | dose: 25.0 mg/kg/injection, schedule: Q01DX009 (ip), vehicle: Klucel (hydroxypropylcellulose) (HPC) 122 % of control | [14] 106 % of control | dose: 38.0 mg/kg/injection, schedule: Q01DX001 (ip), vehicle: other 112 % of control | dose: 50.0 mg/kg/injection, schedule: Q01DX009 (ip), vehicle: Klucel (hydroxypropylcellulose) (HPC) 100 % of control and 117 % of control | [15] 116 % of control | [16] 111 % of control | [17] 122 % of control

CCC(C)C(C#N)(CCN(C)C)Cc1cccc2ccccc12 (configuration not stated)
inactive: [14] 97 % of control | [15] 92 % of control | [16] 100 % of control | [17] 103 % of control

Cc1cc(NC(=O)NCc2ccc([N+](=O)[O-])cc2Cl)ccc1S(=O)(=O)F
inactive: [17] 98 % of control | dose: 200.0 mg/kg/injection, schedule: Q04DX003 (ip), vehicle: Klucel (hydroxypropylcellulose) (HPC) 98 % of control | dose: 400.0 mg/kg/injection, schedule: Q04DX003 (ip), vehicle: Klucel (hydroxypropylcellulose) (HPC) 106 % of control

Cc1ccc(S(=O)(=O)Nc2ccc(I)c(Cl)c2Cl)cc1
inactive: [11] 101 % of control | dose: 200.0 mg/kg/injection, schedule: Q01DX009 (ip), vehicle: saline with Tween-80 104 % of control | dose: 400.0 mg/kg/injection, schedule: Q01DX009 (ip), vehicle: saline with Tween-80 110 % of control

CCOc1ccc(N=O)c(O)c1
inactive: dose: 75.0 mg/kg/injection, schedule: Q01DX001 (ip), vehicle: carboxymethylcellulose (CMC) 101 % of control | dose: 150.0 mg/kg/injection, schedule: Q01DX001 (ip), vehicle: carboxymethylcellulose (CMC) 90 % of control

COc1cc2c(cc1C)OC(C)(CC(=O)O)C2 (configuration not stated)
inactive: [7] 103 % of control | [8] 96 % of control | [9] 96 % of control

CSc1nnc2c3ccccc3ccn12
inactive: [10] 104 % of control | [12] 96 % of control | [13] 93 % of control
